Experiments:
Mu-type opioid receptor [1] = target: T1, Mu-type opioid receptor (Cavia porcellus, UniProt P97266); assay: Compound was tested for the inhibition of [35S]GTP-gamma-S, binding in Guinea pig Caudate stimulated by the opioid receptor agonist Mu-DAMGO; type: functional
[2] = target: Delta-type opioid receptor (Rattus norvegicus, UniProt P33533); assay: Binding affinity was determined as ability to displace [3H]DADLE radioligand from Opioid receptor delta 1
[3] = target: T2, Kappa-type opioid receptor (Cavia porcellus, UniProt P41144); assay: Compound was tested for the inhibition of [35S]GTP-gamma-S, binding to Opioid receptor kappa 1; type: functional
T2 sequence (P41144 whole entry): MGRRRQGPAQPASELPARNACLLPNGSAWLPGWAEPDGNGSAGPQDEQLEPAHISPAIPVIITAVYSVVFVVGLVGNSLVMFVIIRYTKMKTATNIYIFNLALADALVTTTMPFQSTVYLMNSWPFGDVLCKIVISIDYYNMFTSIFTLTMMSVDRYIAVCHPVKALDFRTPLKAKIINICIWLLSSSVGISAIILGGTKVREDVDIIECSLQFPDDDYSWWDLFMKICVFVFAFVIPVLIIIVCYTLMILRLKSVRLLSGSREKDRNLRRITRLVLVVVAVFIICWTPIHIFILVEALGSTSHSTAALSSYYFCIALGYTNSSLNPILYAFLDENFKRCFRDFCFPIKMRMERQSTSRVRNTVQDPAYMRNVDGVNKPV

[4] = target: T2, Kappa-type opioid receptor; assay: Binding affinity was determined as ability to displace [3H]-U-69, radioligand from Opioid receptor kappa 1
Mu-type opioid receptor [5] = target: Mu-type opioid receptor (Rattus norvegicus, UniProt P33535); assay: Binding affinity was determined as ability to displace [3H]DAMGO radioligand from Mu opioid receptor
Mu-type opioid receptor (Rattus norvegicus, UniProt P33535), sequence (P33535 whole entry): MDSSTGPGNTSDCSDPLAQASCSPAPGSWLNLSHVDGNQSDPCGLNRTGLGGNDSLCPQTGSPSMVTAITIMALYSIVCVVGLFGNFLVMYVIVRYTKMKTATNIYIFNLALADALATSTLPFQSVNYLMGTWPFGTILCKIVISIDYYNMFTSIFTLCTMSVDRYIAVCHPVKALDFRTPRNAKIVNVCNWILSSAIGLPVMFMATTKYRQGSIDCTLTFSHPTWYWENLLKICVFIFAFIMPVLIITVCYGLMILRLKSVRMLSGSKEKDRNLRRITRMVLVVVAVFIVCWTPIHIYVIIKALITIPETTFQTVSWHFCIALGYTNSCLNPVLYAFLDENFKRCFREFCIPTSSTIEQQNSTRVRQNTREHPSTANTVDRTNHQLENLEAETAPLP

Mu-type opioid receptor [6] = target: T1, Mu-type opioid receptor; assay: Binding affinity was determined against Mu opioid receptor using [3H]-Naltrexone as radioligand
[7] = target: T2, Kappa-type opioid receptor; assay: Compound was tested for the inhibition of [35S]GTP-gamma-S, binding Opioid receptor kappa 1; type: functional

T1 sequence (P97266 whole entry): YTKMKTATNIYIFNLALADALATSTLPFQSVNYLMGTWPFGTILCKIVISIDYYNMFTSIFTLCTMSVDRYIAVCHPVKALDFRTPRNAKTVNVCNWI
Delta-type opioid receptor, sequence (P33533 whole entry): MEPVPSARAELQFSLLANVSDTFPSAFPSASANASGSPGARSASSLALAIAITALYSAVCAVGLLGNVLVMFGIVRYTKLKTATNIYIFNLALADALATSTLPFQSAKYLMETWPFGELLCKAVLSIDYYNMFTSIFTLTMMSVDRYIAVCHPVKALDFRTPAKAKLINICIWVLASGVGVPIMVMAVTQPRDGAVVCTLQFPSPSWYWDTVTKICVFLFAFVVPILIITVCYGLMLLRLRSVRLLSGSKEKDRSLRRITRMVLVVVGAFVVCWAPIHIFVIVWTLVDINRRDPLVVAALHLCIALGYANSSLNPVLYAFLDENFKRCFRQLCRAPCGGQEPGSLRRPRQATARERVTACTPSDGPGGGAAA

CN1CC[C@]2(c3cccc(O)c3)Cc3ccccc3C[C@]2(C)C1
Ki (Mu-type opioid receptor [1]): 119 nM
Ki [2]: > 5710 nM
Ki [3]: 52.6 nM
Ki [4]: 166 nM
Ki (Mu-type opioid receptor [5]): 297 nM

C[C@H]1CN(C)CC[C@@]1(C)c1cccc(O)c1
Ki (Mu-type opioid receptor [6]): 80 nM

C[C@]12Cc3ccccc3C[C@@]1(c1cccc(O)c1)CCN(CCc1ccccc1)C2
Ki (Mu-type opioid receptor [1]): 10 nM
Ki [2]: 1270 nM
Ki [7]: 6.61 nM
Ki [4]: 9.8 nM
Ki (Mu-type opioid receptor [5]): 11.2 nM
